Measured values from patent USRE42013E1, “Macrocyclic modulators of the ghrelin receptor” (Tranzyme Pharma Inc., priority 2003, dated 2010).

Each compound was assayed against T1, human growth hormone secretagogue receptor (hGHS-R1a) (Homo sapiens, UniProt Q92847) (assay: Competitive radioligand binding assay (ghrelin receptor), [125I]-ghrelin displacement). Details: Table 3B; binding at human ghrelin receptor, [125I]-ghrelin displacement; read-out: Ki.
T1 construct: purchased PerkinElmer BioSignal #RBHGHSM, lot#1887; host or cells: HEK-293, stably transfected
T1 sequence (Q92847 whole entry): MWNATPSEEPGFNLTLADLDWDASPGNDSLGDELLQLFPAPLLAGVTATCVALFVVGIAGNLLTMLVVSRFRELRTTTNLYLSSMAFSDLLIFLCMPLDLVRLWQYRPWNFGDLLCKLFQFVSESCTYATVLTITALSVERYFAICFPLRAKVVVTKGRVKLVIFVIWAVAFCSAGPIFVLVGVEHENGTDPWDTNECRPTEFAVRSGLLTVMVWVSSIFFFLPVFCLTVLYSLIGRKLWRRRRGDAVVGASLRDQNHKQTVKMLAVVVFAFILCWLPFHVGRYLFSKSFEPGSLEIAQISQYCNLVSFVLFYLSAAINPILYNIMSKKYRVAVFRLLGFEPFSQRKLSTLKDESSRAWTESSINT
Protocol: The competitive binding assay at the human growth hormone secretagogue receptor (hGHS-R1a) was carried out analogously to assays described in the literature.
Multiscreen Harvest plates-GF/C (Millipore, #MAHFC1H60) • 4. […] Bottom seal (Millipore, #MATAH0P00) • 7. […] Binding Buffer: 25 mM Hepes (pH 7.4), 1 mM CaCl2, 5 mM MgCl2, 2.5 mM EDTA, 0.4% BSA Assay Volumes
Competition experiments were performed in a 300 μl filtration assay format. • 1. 220 μL of membranes diluted in binding buffer • 2. 40 μL of compound diluted in binding buffer • 3. […] Compound Handling
Compounds were provided frozen on dry ice at a stock concentration of 10 mM diluted in 100% DMSO and stored at −80° C. until the day of testing. On the test day, compounds were allowed to thaw at rt O/N and then diluted in assay buffer according to the desired test concentrations.
Plates were sealed with TopSeal-A, vortexed gently and incubated at rt for 30 min. The reaction was arrested by filtering samples through Multiscreen Harvest plates (pre-soaked in 0.5% polyethyleneimine) using a Tomtec Harvester, washed 9 times with 500 μL of cold 50 mM Tris-HCl (pH 7.4, 4° C.), and then plates were air-dried in a fumehood for 30 min. A bottom seal was applied to the plates prior to the addition of 25 μL of MicroScint-0 to each well. […] Results were expressed as counts per minute (cpm).
Data were analyzed by GraphPad Prism (GraphPad Software, San Diego, Calif.) using a variable slope non-linear regression analysis.
Compound structures for Tables 3A, 3B and 3D are presented with the various groups as defined for the general structure of formula I. For Tables 3B and 3D, in all entries, m, n and p are 0; X, Z1 and Z2 are each NH. For Table 3B, R1 is H for all entries. The tethers (T) are illustrated with the bonding to X and Z2 as indicated. The compounds themselves are shown for Table 3C.
• 1. […] Key Aspects of Method • 1. […] Results
In the case of `CCC(C)C1NCCCc2ccccc2CCCCNC(=O)C(Cc2cccc(Cl)c2)NC(=O)C2(CCCC2)NC1=O` (stereo not shown) [compound 371], the Ki is reported as < 0.1 µM.
In the case of `CCC(C)C1NCCCNCCNC(=O)C(Cc2cccc(Cl)c2)NC(=O)C2(CCCC2)NC1=O` (stereo not shown) [compound 390], the Ki is reported as 0.1 to 10 µM.
In the case of `O=C1NC2(CCCC2)C(=O)NC(Cc2cccc(Cl)c2)C(=O)NCC=Cc2ccccc2OCCNC1Cc1ccc(O)cc1` (stereo not shown) [compound 301], the Ki is reported as < 0.1 µM.
`CCC(C)C1NCCOc2ccccc2C2CC2CNC(=O)C(Cc2cccc(Cl)c2)NC(=O)C2(CCCC2)NC1=O` (stereo not shown) [compound 387] was tested, and the Ki was 0.1 to 10 µM.
With `CCC(C)C1NCCOc2ccccc2CC(C)CNC(=O)C(Cc2cccc(Cl)c2)NC(=O)C2(CCCC2)NC1=O` (stereo not shown) [compound 392] the Ki was < 0.1 µM.
`O=C1NC2(CCCC2)C(=O)NC(Cc2cccc(Cl)c2)C(=O)NCC=Cc2ccccc2OCCNC1Cc1ccsc1` (stereo not shown) [compound 341] was tested, and the Ki was < 0.1 µM.
`CCC(C)C1NCc2ccccc2CCCCCNC(=O)C(Cc2cccc(Cl)c2)NC(=O)C2(CCCC2)NC1=O` (stereo not shown) [compound 362] was tested, and the Ki was 0.1 to 10 µM.
For `CCC(C)C1NCCOc2ccccc2C#CCNC(=O)C(Cc2cccc(Cl)c2)NC(=O)C2(CCCC2)NC1=O` (stereo not shown) [compound 381], the Ki was < 0.1 µM.
`CC1C(=O)NC(Cc2ccc(F)cc2)C(=O)NCCCc2ccc(NS(C)(=O)=O)cc2OCCNC(C2CC2)C(=O)N1C` (stereo not shown) [compound 357] gave a Ki of 0.1 to 10 µM.
In the case of `C[C@@H]1C(=O)N[C@H](Cc2ccc(O)c(C(C)(C)C)c2)C(=O)NCCCc2ccccc2OCCN[C@@H](C2CC2)C(=O)N1C` [compound 311], the Ki is reported as < 0.1 µM.
In the case of `CC1C(=O)NC(Cc2ccc(F)cc2)C(=O)NCCCc2cc(F)ccc2OCCNC(C2CC2)C(=O)N1C` (stereo not shown) [compound 355], the Ki is reported as < 0.1 µM.
`CC1CCNC(=O)C(Cc2ccc(F)cc2)NC(=O)C(C)N(C)C(=O)C(C2CC2)NCCOc2ccccc21` (stereo not shown) [compound 375] showed a Ki of 0.1 to 10 µM.
With `CC1C(=O)NC(Cc2ccsc2)C(=O)NCCCc2ccccc2OCCNC(C2CC2)C(=O)N1C` (stereo not shown) [compound 310] the Ki was < 0.1 µM.
For `CCC(C)C1NCCOc2ccccc2C=CCNC(=O)C(Cc2cccc(Br)c2)NC(=O)C2(CCCC2)NC1=O` (stereo not shown) [compound 326], the Ki was < 0.1 µM.
For `CCC(C)C1NCCOCCOCCNC(=O)C(Cc2cccc(Cl)c2)NC(=O)C2(CCCC2)NC1=O` (stereo not shown) [compound 393], the Ki was 0.1 to 10 µM.
In the case of `CCC(C)C1NCCCCCCNC(=O)C(Cc2cccc(Cl)c2)NC(=O)C2(CCCC2)NC1=O` (stereo not shown) [compound 365], the Ki is reported as 0.1 to 10 µM.
In the case of `N#Cc1ccccc1CC1NCCOc2ccccc2C=CCNC(=O)C(Cc2cccc(Cl)c2)NC(=O)C2(CCCC2)NC1=O` (stereo not shown) [compound 342], the Ki is reported as 0.1 to 10 µM.
With `CCC(C)C1NCCOc2ccccc2C(C)(C)CCNC(=O)C(Cc2cccc(Cl)c2)NC(=O)C2(CCCC2)NC1=O` (stereo not shown) [compound 359] the Ki was 0.1 to 10 µM.
With `COC(C)C1NCCOc2ccccc2CCCNC(=O)C(Cc2ccc(F)cc2)NC(=O)C(C)N(C)C1=O` (stereo not shown) [compound 335] the Ki was < 0.1 µM.
Work on `CCC(C)C1NCCCc2ccccc2C=CCCNC(=O)C(Cc2cccc(Cl)c2)NC(=O)C2(CCCC2)NC1=O` (stereo not shown) [compound 361] yielded a Ki of 0.1 to 10 µM.
In the case of `CC1C(=O)NC(Cc2ccc(F)cc2)C(=O)NCCC=CCOCCNC(C2CC2)C(=O)N1C` (stereo not shown) [compound 307], the Ki is reported as 0.1 to 10 µM.
Work on `CC1C(=O)NC(Cc2ccc(F)cc2)C(=O)NCCC(C)(C)c2ccccc2OCCNC(C2CC2)C(=O)N1C` (stereo not shown) [compound 378] yielded a Ki of 0.1 to 10 µM.
For `CCC(C)C1NCCOc2ccccc2C(C)CCNC(=O)C(Cc2cccc(Cl)c2)NC(=O)C2(CCCC2)NC1=O` (stereo not shown) [compound 386], the Ki was 0.1 to 10 µM.
`CCC(C)C1NCCOc2cccnc2CCCNC(=O)C(Cc2cccc(Cl)c2)NC(=O)C2(CCCC2)NC1=O` (stereo not shown) [compound 385] showed a Ki of 0.1 to 10 µM.
In the case of `COc1ccc(CC2NC(=O)C(C)N(C)C(=O)C(C3CC3)NCCOc3ccccc3CCCNC2=O)cc1OC` (stereo not shown) [compound 323], the Ki is reported as 0.1 to 10 µM.

Same assay, conditions: Table 3D; binding at human ghrelin receptor, [125I]-ghrelin displacement; read-out: Ki
`CC1CNC(C2CC2)C(=O)N(C)C(C)C(=O)NC(Cc2ccccc2)C(=O)NCCCc2ccc(F)cc2O1` (stereo not shown) [compound 435] gave a Ki of 0.01 to 0.1 µM.
For `CC(C)CC1NCC(C)Oc2ccccc2CCCNC(=O)C(Cc2cccc(Cl)c2)NC(=O)C2(CCCC2)NC1=O` (stereo not shown) [compound 438], the Ki was 1 to 10 µM.

Same assay, conditions: Table 3E; binding activity at the human ghrelin receptor, class symbols; read-out: Ki
`CC(C)C[C@@H]1NCCOc2ccccc2CCCNC(=O)[C@H](Cc2ccccc2)NC(=O)[C@@H]2CCCN2C1=O` [compound 222] was tested, and the Ki was 1 to 10 µM.

Same assay, conditions: Table 4; binding at human ghrelin receptor; TFA salts unless otherwise noted; read-out: Ki
`CCC(C)C1NCCOc2ccccc2CCCNC(=O)C(Cc2cccs2)NC(=O)C(C)N(C)C1=O` (stereo not shown) [compound 34] was tested, and the Ki was 0.01 to 0.1 µM.

Same assay, conditions: [125I]-ghrelin displacement, hGHS-R1a HEK-293 membranes; read-out: Binding Activity at the Human Ghrelin Receptor (Ki)
For `CCC(C)C1NCCCc2c(c(=O)n(C)c(=O)n2C)CCCNC(=O)C(Cc2ccccc2)NC(=O)C(C)N(C)C1=O` (stereo not shown) [compound 206], the Ki was > 10 µM.
`CCCC1C(=O)N(C)C(C)C(=O)NC(Cc2ccccc2)C(=O)NCCCc2ccccc2OCCN1C(C)=O` (stereo not shown) [compound 202] was tested, and the Ki was > 10 µM.
`CCC(C)C1NCCOc2ccc(C(=N)N)cc2CCCNC(=O)C(Cc2ccccc2)NC(=O)C(C)N(C)C1=O` (stereo not shown) [compound 196] was tested, and the Ki was > 10 µM.
With `CCC(C)C1NCCCc2ccccc2CCCNC(=O)C(Cc2ccccc2)NC(=O)C(C)N(C)C1=O` (stereo not shown) [compound 190] the Ki was 0.01 to 0.1 µM.
`CCCC1C(=O)N(C)C(C)C(=O)NC(Cc2ccccc2)C(=O)NCCCc2ccccc2OCCN1C` (stereo not shown) [compound 201] gave a Ki of 0.1 to 10 µM.

Same assay, conditions: binding activity at the human ghrelin receptor; [125I]-ghrelin displacement, hGHS-R1a/HEK-293 membranes; read-out: Ki
With `CCCC1NCC2CCC(CNC(=O)C(Cc3ccccc3)NC(=O)CN(C)C1=O)O2` (stereo not shown) [compound 78] the Ki was > 10 µM.
`O=C1NC2(CCCC2)C(=O)NC(Cc2ccccc2)C(=O)NCC=Cc2ccccc2OCCNC1Cc1cscn1` (stereo not shown) [compound 134] was tested, and the Ki was 0.1 to 10 µM.
With `CC(C)CC1NCCOc2ccccc2CCCNC(=O)C(C)NC(=O)C2(CCCC2)NC1=O` (stereo not shown) [compound 87] the Ki was > 10 µM.
`CCC(C)C1NCCc2ccccc2C=CCCNC(=O)C(Cc2ccccc2)NC(=O)C(C)N(C)C1=O` (stereo not shown) [compound 188] was tested, and the Ki was > 1 µM.
Work on `CCC(C)C1NCCc2ccccc2C=CCNC(=O)C(Cc2ccccc2)NC(=O)C(C)N(C)C1=O` (stereo not shown) [compound 187] yielded a Ki of 0.1 to 10 µM.
With `CCCC1NC(=O)C2(CCCC2)NC(=O)C(CC(C)C)NCCOc2ccccc2C=CCNC1=O` (stereo not shown) [compound 48] the Ki was > 10 µM.
`CC(C)C1NCCOc2ccccc2C=CCNC(=O)C(Cc2ccccc2)NC(=O)C2(Cc3ccccc3C2)NC1=O` (stereo not shown) [compound 142] was tested, and the Ki was 0.1 to 10 µM.
In the case of `CCC(C)C1NCCCCc2ccccc2CCNC(=O)C(Cc2ccccc2)NC(=O)C(C)N(C)C1=O` (stereo not shown) [compound 180], the Ki is reported as 0.1 to 10 µM.
`CCC(C)C1NCCOc2ccccc2CCCNC(=O)C(Cc2cccs2)NC(=O)C(C)N(C)C1=O` (stereo not shown) [compound 34] gave a Ki of 0.01 to 0.1 µM.
For `CC(C)CC1NCCOCCNC(=O)C(Cc2ccccc2)NC(=O)C2(CCCC2)NC1=O` (stereo not shown) [compound 44], the Ki was > 10 µM.
With `CCCCC1NC(=O)C(CCCC)NC(=O)C(C(C)C)NCCOc2ccccc2C=CCNC1=O` (stereo not shown) [compound 12] the Ki was 0.1 to 10 µM.
In the case of `CC(C)CC1NCc2cccc(c2)CCNC(=O)C(Cc2ccccc2)NC(=O)C2(CCCC2)NC1=O` (stereo not shown) [compound 107], the Ki is reported as > 10 µM.
Compound `CCCC1NCCOc2ccccc2CCCNC(=O)C(Cc2ccccc2)NC(=O)C(Cc2ccccc2)NC1=O` (stereo not shown) [compound 65] has a Ki of 1 to 10 µM.
`CCCC1NCCOc2ccccc2CCCNC(=O)C(Cc2ccccc2)NC(=O)C(CCC(=O)O)NC1=O` (stereo not shown) [compound 71] was tested, and the Ki was > 10 µM.
With `CC(C)CC1NCc2ccccc2Sc2ccccc2CNC(=O)C(Cc2ccccc2)NC(=O)C2(CCCC2)NC1=O` (stereo not shown) [compound 108] the Ki was 1 to 10 µM.
`CC(C)CC1NCCOc2ccccc2C=CCNC(=O)C(Cc2cscn2)NC(=O)C2(CCCC2)NC1=O` (stereo not shown) [compound 163] was tested, and the Ki was > 10 µM.
In the case of `CC(C)CC1NCCC#CCCNC(=O)C(Cc2ccccc2)NC(=O)C2(CCCC2)NC1=O` (stereo not shown) [compound 106], the Ki is reported as > 10 µM.
`CCC(C)C1NCCOCC=CCNC(=O)C(Cc2ccccc2)NC(=O)C(C)N(C)C1=O` (stereo not shown) [compound 185] was tested, and the Ki was 0.1 to 10 µM.
In the case of `O=C1NCC=Cc2ccccc2OCCNC(C(c2ccccc2)c2ccccc2)C(=O)NC2(CCCC2)C(=O)NC1Cc1ccccc1` (stereo not shown) [compound 129], the Ki is reported as > 10 µM.
For `CCC1NCCOc2ccccc2CCCNC(=O)C(Cc2ccccc2)NC(=O)C(C)N(C)C1=O` (stereo not shown) [compound 117], the Ki was 0.01 to 0.1 µM.
For `CC(C)CC1NCCOc2cccnc2CCCNC(=O)C(Cc2ccccc2)NC(=O)C2(CCCC2)NC1=O` (stereo not shown) [compound 109], the Ki was 1 to 10 µM.
For `CCC(C)C1NCCOc2ccccc2CCCNC(=O)C(Cc2cscn2)NC(=O)C(C)N(C)C1=O` (stereo not shown) [compound 33], the Ki was 0.1 to 10 µM.
`CN1CC(=O)NC(Cc2ccccc2)C(=O)NCCCc2ccccc2OCCNC(Cc2ccccc2)C1=O` (stereo not shown) [compound 75] was tested, and the Ki was 0.1 to 10 µM.
`CCCC1NCCOc2ccccc2CCCNC(=O)C(Cc2ccccc2)NC(=O)C(C)(C)NC1=O` (stereo not shown) [compound 66] showed a Ki of 0.1 to 10 µM.
Work on `CCC(C)C1NCCCc2ccccc2CCNC(=O)C(Cc2ccccc2)NC(=O)C(C)N(C)C1=O` (stereo not shown) [compound 179] yielded a Ki of 0.1 to 10 µM.
In the case of `CCCC1NCCOc2ccccc2CCCNC(=O)C(Cc2ccccc2)NC(=O)C(CCC(=O)O)NC1=O` (stereo not shown) [compound 70], the Ki is reported as > 10 µM.
For `CCC(C)C1NCCCCC=CCNC(=O)C(Cc2ccccc2)NC(=O)C(C)N(C)C1=O` (stereo not shown) [compound 181], the Ki was > 10 µM.
